In brackets after ≈: the same amount, converted by molar mass.
How the values were obtained:
[1] = biological target: T1, Nuclear receptor subfamily 1 group I member 2 (Homo sapiens, UniProt O75469); assay: Activation of human recombinant PXR up to 10 uM by alphascreen method
T1 sequence (O75469 whole entry): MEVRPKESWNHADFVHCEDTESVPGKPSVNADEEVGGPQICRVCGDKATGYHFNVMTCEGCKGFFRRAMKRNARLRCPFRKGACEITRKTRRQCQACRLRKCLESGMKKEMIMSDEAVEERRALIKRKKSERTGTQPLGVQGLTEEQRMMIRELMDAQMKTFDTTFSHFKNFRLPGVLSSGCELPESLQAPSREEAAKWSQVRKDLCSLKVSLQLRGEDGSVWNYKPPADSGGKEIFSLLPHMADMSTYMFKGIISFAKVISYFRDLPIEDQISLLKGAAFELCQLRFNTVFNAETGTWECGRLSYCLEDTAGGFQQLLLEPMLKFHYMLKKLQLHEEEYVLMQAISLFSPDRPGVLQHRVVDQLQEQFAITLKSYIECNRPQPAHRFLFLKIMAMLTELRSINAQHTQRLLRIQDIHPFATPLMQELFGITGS

[2] = Metabolic stability in mouse plasma assessed as compound remaining at 1 uM after 24 hrs by HPLC-ESI-MS/MS analysis; assay type: ADME, cell-free; details: read-out: Stability
Ephrin type-A receptor 6 = biological target: T2, Ephrin type-A receptor 6 (Homo sapiens, UniProt Q9UF33); assay: (§1) Displacement of biotinylated ephrin-A1-Fc from EphA6 (unknown origin) preincubated for 1 hr followed by biotinylated-ephrin-A1-Fc addition measured after 4 hrs by ELISA
T2 sequence (Q9UF33 whole entry): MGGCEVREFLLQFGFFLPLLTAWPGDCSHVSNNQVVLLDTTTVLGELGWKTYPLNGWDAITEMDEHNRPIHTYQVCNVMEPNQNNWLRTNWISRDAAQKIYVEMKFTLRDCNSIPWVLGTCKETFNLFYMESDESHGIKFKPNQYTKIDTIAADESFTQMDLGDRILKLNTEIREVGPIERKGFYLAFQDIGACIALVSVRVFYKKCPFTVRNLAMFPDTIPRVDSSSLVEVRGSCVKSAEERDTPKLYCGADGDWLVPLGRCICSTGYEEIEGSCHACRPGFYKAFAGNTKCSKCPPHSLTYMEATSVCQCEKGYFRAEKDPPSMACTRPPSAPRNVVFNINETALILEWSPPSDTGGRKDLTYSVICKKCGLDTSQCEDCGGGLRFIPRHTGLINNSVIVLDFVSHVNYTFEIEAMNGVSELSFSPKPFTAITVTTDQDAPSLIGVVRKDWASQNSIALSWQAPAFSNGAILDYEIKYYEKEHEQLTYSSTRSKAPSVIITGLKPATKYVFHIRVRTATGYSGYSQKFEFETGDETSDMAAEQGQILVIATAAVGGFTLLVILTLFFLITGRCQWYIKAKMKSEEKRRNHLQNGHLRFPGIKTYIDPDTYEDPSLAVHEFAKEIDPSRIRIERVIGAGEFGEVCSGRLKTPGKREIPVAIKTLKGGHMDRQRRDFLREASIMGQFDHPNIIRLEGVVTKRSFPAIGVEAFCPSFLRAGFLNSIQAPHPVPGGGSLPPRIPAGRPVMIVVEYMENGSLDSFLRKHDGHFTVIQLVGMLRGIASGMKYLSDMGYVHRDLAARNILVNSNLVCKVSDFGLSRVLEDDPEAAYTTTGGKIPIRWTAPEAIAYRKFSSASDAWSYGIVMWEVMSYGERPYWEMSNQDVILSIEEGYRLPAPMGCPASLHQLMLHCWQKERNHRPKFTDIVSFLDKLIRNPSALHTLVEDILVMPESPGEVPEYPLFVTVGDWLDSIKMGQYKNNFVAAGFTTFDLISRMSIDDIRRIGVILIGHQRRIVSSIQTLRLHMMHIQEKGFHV

[3] = biological target: T3, Ephrin type-A receptor 6 (Homo sapiens) (UniProt Q9UF33); assay: as §1
T3 sequence (whole entry): T2 sequence (Q9UF33 whole entry)

[4] = Kinetic solubility of the compound in NaCl solution at 25 deg C after 2 hrs by HPLC-ESI-MS/MS analysis; assay type: physicochemical; details: read-out: Kinetic_solubility
[5] = Tmax in mouse at 30 mg/kg, po administered as single dose by HPLC-MS analysis; assay type: ADME, organism-based; details: in vivo
[6] = biological target: T4, Ephrin type-B receptor 4 (Homo sapiens) (UniProt P54760); assay: Displacement of biotinylated ephrin-B1-Fc from EphB4 (unknown origin) preincubated for 1 hr followed by biotinylated-ephrin-B1-Fc addition measured after 4 hrs by ELISA
T4 sequence (whole entry): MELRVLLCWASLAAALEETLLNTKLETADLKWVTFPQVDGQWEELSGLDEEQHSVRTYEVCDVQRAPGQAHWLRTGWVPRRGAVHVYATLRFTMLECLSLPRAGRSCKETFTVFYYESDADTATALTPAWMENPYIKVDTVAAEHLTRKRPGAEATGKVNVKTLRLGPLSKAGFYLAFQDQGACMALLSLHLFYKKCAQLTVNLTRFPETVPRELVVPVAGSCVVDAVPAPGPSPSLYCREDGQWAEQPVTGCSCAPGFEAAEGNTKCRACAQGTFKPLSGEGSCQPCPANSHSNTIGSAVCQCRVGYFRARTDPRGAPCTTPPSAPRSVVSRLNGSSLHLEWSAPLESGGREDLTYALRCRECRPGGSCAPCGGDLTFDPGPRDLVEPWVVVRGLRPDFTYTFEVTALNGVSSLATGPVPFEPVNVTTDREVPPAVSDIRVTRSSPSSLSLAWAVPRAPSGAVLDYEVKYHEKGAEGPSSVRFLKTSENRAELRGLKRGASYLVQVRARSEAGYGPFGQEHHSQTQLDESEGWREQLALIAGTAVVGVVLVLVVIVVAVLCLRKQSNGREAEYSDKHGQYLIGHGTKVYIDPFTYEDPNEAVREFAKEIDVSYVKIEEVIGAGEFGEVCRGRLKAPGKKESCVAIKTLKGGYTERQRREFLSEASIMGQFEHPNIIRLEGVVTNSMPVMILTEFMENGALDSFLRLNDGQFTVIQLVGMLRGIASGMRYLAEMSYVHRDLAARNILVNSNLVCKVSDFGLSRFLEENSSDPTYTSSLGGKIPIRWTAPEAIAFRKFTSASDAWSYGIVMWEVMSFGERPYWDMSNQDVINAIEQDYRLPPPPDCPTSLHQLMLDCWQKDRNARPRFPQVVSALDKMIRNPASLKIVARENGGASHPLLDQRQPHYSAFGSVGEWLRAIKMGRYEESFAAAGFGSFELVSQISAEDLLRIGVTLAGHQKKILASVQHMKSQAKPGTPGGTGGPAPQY

Ephrin type-A receptor 7 = Ephrin type-A receptor 7 (Homo sapiens, UniProt Q15375); assay: Displacement of biotinylated ephrin-A1-Fc from EphA7 (unknown origin) preincubated for 1 hr followed by biotinylated-ephrin-A1-Fc addition measured after 4 hrs by ELISA

C[C@H](CCC(=O)N[C@@H](Cc1c[nH]c2ccccc12)C(=O)O)[C@H]1CC[C@H]2[C@@H]3CC=C4C[C@@H](O)CC[C@]4(C)[C@H]3CC[C@]12C
Activity [1]: Not Active
remaining at 24 h, 1 µM [2]: 95.8%
IC50 (Ephrin type-A receptor 6): 3500 nM
inhibition [3]: Dose-dependent effect
solubility kinetic at 2 h [4]: 31.5 µM (≈ 17.7 µg/mL)
Tmax [5]: 30 min
inhibition [6]: Dose-dependent effect
IC50 (Ephrin type-A receptor 7): 2500 nM
inhibition (Ephrin type-A receptor 7): Dose-dependent effect

From ChEMBL document CHEMBL3734669, “Δ(5)-Cholenoyl-amino acids as selective and orally available antagonists of the Eph-ephrin system” (Eur J Med Chem, 2015)
